Patent US11827917B1, “Methods for the conversion of fermentable sugars to ethanol” (Colorado State University Research Foundation, priority 2020, dated 2023)
Marks after values point to notes of the source that are not given here.

Tests used:
S. kudriavzezii JAY 1503 = assay: Serum-bottle cultivation in YPD, different yeast strains; format: cell-based; details: 0.2%
Protocol: (§1) Analytical methods: Cell growth was evaluated by monitoring OD600 and cell dry mass concentration. For dry mass measurements, 1.0 mL of culture was transferred to a pre-dried and pre-weighed 2-mL centrifuge tube. The tubes were centrifuged for 10 min at 14000 rpm using a microcentrifuge, and then the cell pellets were dried in an oven for 3 days at 65° C. The cell dry mass was determined by subtracting the initial tube mass from the dried mass of tube with cells. The concentrations of glucose, ethanol, and glycerol were measured via HPLC (Shimadzu LC20A series) outfitted with a refractive index detector and using an Aminex HPX-87H (300×7.8 mm) organic acid column and Cation H+ guard cartridge (Bio Rad Laboratories, Hercules, CA). The column was maintained at 65° C. and the mobile phase was 5 mM sulfuric acid with a flow rate of 0.6 mL/min. Standard compound solutions were used to calibrate the HPLC. Each sample was analyzed three times by HPLC.
(§2) Procedure: Seven yeast strains (S. cerevisiae ATCC 26603, S. cerevisiae JAY 238, S. cerevisiae JAY 240, S. cerevisiae JAY 241, S. paradoxus JAY 1502, S. kudriavzezii JAY 1503, and S. mikatae JAY 1504) were pre-cultured in 30 mL of YPD medium in 100 mL serum bottle overnight in a shaker at 30° C. and 200 rpm. The precultured yeast cells of each strains were collected and washed twice. Finally, the cell pellet was resuspended in about 10 mL 0.8% (w/v) NaCl and the OD600 measured. TyrOH, PheOH, and TrpOH were added to 30 mL of YPD medium in 100-mL serum bottles at 0.2% (w/v) respectively. The same amount of DMSO was added in YPD medium and served as control to the TrpOH and TyrOH treatments. The prepared yeast cells were added to obtain the initial cell concentration at OD600=0.2. The serum bottles were sealed and cultured in a shaker at 30° C. and 200 rpm for 24 h. There were three biological replicates for each treatment.

S. paradoxus JAY 1502 = assay: as above; format: cell-based; details: 0.2%
Protocol: as §1, §2

S. mikatae JAY 1504 = assay: as above; format: cell-based; details: 0.2%
Protocol: as §1, §2

S. cerevisiae JAY 270 [1] = assay: Serum-bottle cultivation in YPD: biomass, glycerol, ethanol yields; format: cell-based, Saccharomyces cerevisiae
Protocol: Procedure: Cultivations in serum bottles were used to determine the effect of the best-performing screened chemicals on the ethanol yield. S. cerevisiae JAY 270 was pre-cultured in 100 mL of YPD medium in 200-mL serum bottles overnight in a shaker at 30° C. and 200 rpm. The precultured yeast cells were collected and washed twice as described above. The cell pellet was resuspended in about 10 mL of 0.8% (w/v) NaCl and the cell concentration was estimated as OD600. TyrOH, PheOH, and TrpOH were added to 30 mL of YPD medium in 100-mL serum bottles at 0.05% and 0.2% respectively. The same amount of DMSO was added to YPD medium to serve as the control for TrpOH and TyrOH treatments. The bottles were inoculated with the prepared yeast cells to obtain an initial cell concentration of OD600=0.2. The serum bottles were sealed and cultured in a shaker at 30° C. and 200 rpm for 24 h. Each condition had three biological replicates.
as §1

S. cerevisiae JAY 270 [2] = assay: Growth test in liquid YNB medium, low/high nitrogen, serum bottles; format: cell-based, Saccharomyces cerevisiae; details: 40, 200, 1000 mg/L; low and high nitrogen media
Protocol: A second set of tests was performed in a defined liquid medium, Yeast Nitrogen Base with Glucose (YNB), containing (NH4)2SO4 at either low (1 mM) or high (10 mM) nitrogen content. […] All serum bottles were incubated in a shaker at 30° C. and 150 RPM. Each treatment was performed in biological duplicate. Samples were collected at 0, 5, and 10 hours.

[3] = S. kudriavzezii JAY 1503, YPD (Table 9B)
[4] = S. paradoxus JAY 1502, YPD (Table 9B)
[5] = S. mikatae JAY 1504, YPD (Table 9B)
[6] = 0.05% (w/v), YPD, serum bottles

OCCc1ccccc1 [PheOH, 2-phenylethanol]
Biomass Yield (S. kudriavzezii JAY 1503; S. kudriavzezii JAY 1503): 0.036 ± 0.001 g/g
Biomass yield % change vs. control (S. kudriavzezii JAY 1503; S. kudriavzezii JAY 1503): −19%
EtOH yield (S. kudriavzezii JAY 1503; S. kudriavzezii JAY 1503): 0.399 ± 0.030 g/g
EtOH yield % change vs. control (S. kudriavzezii JAY 1503; S. kudriavzezii JAY 1503): +8.7%
Glycerol yield (S. kudriavzezii JAY 1503; S. kudriavzezii JAY 1503): 0.060 ± 0.005 g/g
Glycerol yield % change vs. control (S. kudriavzezii JAY 1503; S. kudriavzezii JAY 1503): +19* %
DCW (S. kudriavzezii JAY 1503; S. kudriavzezii JAY 1503, YPD): 1.90 mg
DCW Δ vs. ref (S. kudriavzezii JAY 1503; S. kudriavzezii JAY 1503, YPD): 84.4%
OD600 (S. kudriavzezii JAY 1503; S. kudriavzezii JAY 1503, YPD): 0.92
OD600 Δ vs. ref (S. kudriavzezii JAY 1503; S. kudriavzezii JAY 1503, YPD): 74.9%
Biomass Yield (S. kudriavzezii JAY 1503; [3]): 0.043 + 0.004 g/g
Biomass yield Δ vs. ref (S. kudriavzezii JAY 1503; [3]): 18.6%
Ethanol yield (S. kudriavzezii JAY 1503; [3]): 0.399 ± 0.030 g/g
Ethanol yield Δ vs. ref (S. kudriavzezii JAY 1503; [3]): 8.7%
Glycerol yield (S. kudriavzezii JAY 1503; [3]): 0.06 ± 0.005 g/g
Glycerol yield Δ vs. ref (S. kudriavzezii JAY 1503; [3]): 18.78%
Biomass Yield (S. paradoxus JAY 1502; S. paradoxus JAY 1502): 0.048 ± 0.001 g/g
Biomass yield % change vs. control (S. paradoxus JAY 1502; S. paradoxus JAY 1502): −30* %
EtOH yield (S. paradoxus JAY 1502; S. paradoxus JAY 1502): 0.393 ± 0.000 g/g
EtOH yield % change vs. control (S. paradoxus JAY 1502; S. paradoxus JAY 1502): +2.7%
Glycerol yield (S. paradoxus JAY 1502; S. paradoxus JAY 1502): 0.048 ± 0.002 g/g
Glycerol yield % change vs. control (S. paradoxus JAY 1502; S. paradoxus JAY 1502): +22* %
DCW (S. paradoxus JAY 1502; S. paradoxus JAY 1502, YPD): 1.95 mg
DCW Δ vs. ref (S. paradoxus JAY 1502; S. paradoxus JAY 1502, YPD): 78.0%
OD600 (S. paradoxus JAY 1502; S. paradoxus JAY 1502, YPD): 1.64
OD600 Δ vs. ref (S. paradoxus JAY 1502; S. paradoxus JAY 1502, YPD): 70.0%
Biomass Yield (S. paradoxus JAY 1502; [4]): 0.048 + 0.001 g/g
Biomass yield Δ vs. ref (S. paradoxus JAY 1502; [4]): −29.8%
Ethanol yield (S. paradoxus JAY 1502; [4]): 0.393 ± 0.000 g/g
Ethanol yield Δ vs. ref (S. paradoxus JAY 1502; [4]): 2.7%
Glycerol yield (S. paradoxus JAY 1502; [4]): 0.048 ± 0.002 g/g
Glycerol yield Δ vs. ref (S. paradoxus JAY 1502; [4]): 21.98%
Biomass Yield (S. mikatae JAY 1504; S. mikatae JAY 1504): 0.053 ± 0.000 g/g
Biomass yield % change vs. control (S. mikatae JAY 1504; S. mikatae JAY 1504): −14%
EtOH yield (S. mikatae JAY 1504; S. mikatae JAY 1504): 0.386 ± 0.009 g/g
EtOH yield % change vs. control (S. mikatae JAY 1504; S. mikatae JAY 1504): +3.6%
Glycerol yield (S. mikatae JAY 1504; S. mikatae JAY 1504): 0.043 ± 0.007 g/g
Glycerol yield % change vs. control (S. mikatae JAY 1504; S. mikatae JAY 1504): +4.1%
DCW (S. mikatae JAY 1504; S. mikatae JAY 1504, YPD): 2.35 mg
DCW Δ vs. ref (S. mikatae JAY 1504; S. mikatae JAY 1504, YPD): 77.1%
OD600 (S. mikatae JAY 1504; S. mikatae JAY 1504, YPD): 1.85
OD600 Δ vs. ref (S. mikatae JAY 1504; S. mikatae JAY 1504, YPD): 82.9%
Biomass Yield (S. mikatae JAY 1504; [5]): 0.053 + 0.000 g/g
Biomass yield Δ vs. ref (S. mikatae JAY 1504; [5]): −13.8%
Ethanol yield (S. mikatae JAY 1504; [5]): 0.386 ± 0.009 g/g
Ethanol yield Δ vs. ref (S. mikatae JAY 1504; [5]): 3.6%
Glycerol yield (S. mikatae JAY 1504; [5]): 0.043 ± 0.007 g/g
Glycerol yield Δ vs. ref (S. mikatae JAY 1504; [5]): 4.09%
Cell dry mass concentration, % of the control (S. cerevisiae JAY 270 [1]; 0.05%): 85%
Biomass Yield (S. cerevisiae JAY 270 [1]; [6]): 0.088 + 0.001 g/g
Biomass yield % change vs. control (S. cerevisiae JAY 270 [1]; [6]): −11* %
EtOH yield (S. cerevisiae JAY 270 [1]; [6]): 0.40 ± 0.00 g/g
EtOH yield % change vs. control (S. cerevisiae JAY 270 [1]; [6]): 3.7%
Glycerol yield (S. cerevisiae JAY 270 [1]; [6]): 0.031 ± 0.001 g/g
Glycerol yield % change vs. control (S. cerevisiae JAY 270 [1]; [6]): −4.6%
Biomass yield vs. reference (S. cerevisiae JAY 270 [1]; 0.05%, YPD, serum bottles): −10.8%
Ethanol yield (S. cerevisiae JAY 270 [1]; 0.05%, YPD, serum bottles): 0.40 ± 0.00 g/g
Ethanol yield vs. reference (S. cerevisiae JAY 270 [1]; 0.05%, YPD, serum bottles): 3.7%
Glycerol yield (S. cerevisiae JAY 270 [1]; 0.05%, YPD, serum bottles): 0.031 ± 0.001 g/g
Glycerol yield vs. reference (S. cerevisiae JAY 270 [1]; 0.05%, YPD, serum bottles): −4.6%
OD600 (S. cerevisiae JAY 270 [1]; 0.05%, YPD, serum bottles): 3.35
Cell dry mass concentration, % of the control (S. cerevisiae JAY 270 [1]; 0.2%): 71%
Effect on yeast cell growth (S. cerevisiae JAY 270 [1]; 0.2%): reduced yeast cell growth
Biomass Yield (S. cerevisiae JAY 270 [1]; 0.2% (w/v), YPD, serum bottles): 0.064 + 0.002 g/g
Biomass yield % change vs. control (S. cerevisiae JAY 270 [1]; 0.2% (w/v), YPD, serum bottles): −35* %
EtOH yield (S. cerevisiae JAY 270 [1]; 0.2% (w/v), YPD, serum bottles): 0.41 ± 0.01 g/g
EtOH yield % change vs. control (S. cerevisiae JAY 270 [1]; 0.2% (w/v), YPD, serum bottles): 6.2* %
Glycerol yield (S. cerevisiae JAY 270 [1]; 0.2% (w/v), YPD, serum bottles): 0.025 ± 0.001 g/g
Glycerol yield % change vs. control (S. cerevisiae JAY 270 [1]; 0.2% (w/v), YPD, serum bottles): −25* %
Biomass yield vs. reference (S. cerevisiae JAY 270 [1]; 0.2%, YPD, serum bottles): −35.3%
Effect on ethanol yield (S. cerevisiae JAY 270 [1]; 0.2%, YPD, serum bottles): increased the ethanol yield significantly
Ethanol yield (S. cerevisiae JAY 270 [1]; 0.2%, YPD, serum bottles): 0.41 ± 0.01 g/g
Ethanol yield vs. reference (S. cerevisiae JAY 270 [1]; 0.2%, YPD, serum bottles): 6.2%
Glycerol yield (S. cerevisiae JAY 270 [1]; 0.2%, YPD, serum bottles): 0.025 ± 0.001 g/g
Glycerol yield vs. reference (S. cerevisiae JAY 270 [1]; 0.2%, YPD, serum bottles): −25.1%
OD600 (S. cerevisiae JAY 270 [1]; 0.2%, YPD, serum bottles): 2.44
Inhibitory effect on yeast cell growth in liquid YNB medium (S. cerevisiae JAY 270 [2]): inhibitory at 1000 mg/L in both media, but not at 40 and 200 mg/L
